Assay results from patent publication US20140213453A1, “PLANT GROWTH REGULATION” (SYNGENTA PARTICIPATIONS AG, priority 2011, published 2014).

What was measured:
Format in all cases: in vivo
summer barley (Pasadena) = assay: Glasshouse trial, lodging after leaf spray at growth stage 30, summer barley; conditions: for % lodging 30 DAA: summer barley, untreated check 32.2
Source text: (§1) A glasshouse trial was setup to compare growth regulation effects of trinexapac-ethyl, cis-jasmone, and mixtures of trinexapac-ethyl and cis-jasmone at various rates, on summer barley (Pasadena) and winter rye (Rekrut). Each treatment was applied as a spray to the leaves of the plant at plant growth stage 30 (start of stem elongation). Assessments of lodging were made 30 days after application; the results are expressed as percentage lodging in Table 2. [table]

winter rye (Rekrut) = assay: Glasshouse trial, lodging after leaf spray at growth stage 30, winter rye; conditions: untreated check 18.9
Source text: as §1

barley = assay: Trial in Switzerland, growth regulation (plant height) on barley; conditions: rates g AI/ha: TXP (Moddus EC250) 75, CJN (EC300) 50, TXP + CJN 75 + 50, untreated check 89
Source text: A trial was setup in Switzerland to compare growth regulation effects of trinexapac-ethyl, cis-jasmone, and mixtures of trinexapac-ethyl and cis-jasmone on barley. Assessments of plant height were made 21 days after application.

[1] = test system: Poa annua golf course fairway; assay: Turf study, clipping weights on golf course fairway; conditions: for Clipping weight (grams) per plot, 24-June / Clipping weight (grams) per plot, 10-June / Clipping weight (grams) per plot, 17-June / Clipping weight (grams) per plot, 3-July / Clipping weight (grams) per plot, 4-June: 3 applications on a 4 week schedule; for Clipping weight (grams) per plot, 24-June / Clipping weight (grams) per plot, 10-June / Clipping weight (grams) per plot, 17-June / Clipping weight (grams) per plot, 3-July / Clipping weight (grams) per plot, 4-June / Clipping weight (grams) per plot, Cumulative Clipping total: g ai/ha: TXP 96, CJN 50, TXP + cis-jasmone 72 + 50; for Clipping weight (grams) per plot, 24-June: check 11.95; for Clipping weight (grams) per plot, 10-June: check 12.1; for Clipping weight (grams) per plot, 17-June: check 13.8; for Clipping weight (grams) per plot, 3-July: check 15.7; for Clipping weight (grams) per plot, 4-June: check 21.5; for Clipping weight (grams) per plot, Cumulative Clipping total: total over all rating dates (not all shown), check 194
Description: A study was conducted on Poa annua golf course […], to compare the effects of treatment with cis-jasmone alone, trinexapac-ethyl alone, and combinations of cis-jasmone and trinexapac-ethyl. Clipping weights were measured at regular intervals.

[2] = Treatment 2: TXP (Moddus) 200 g AI/ha
[3] = Treatment 3: TXP (Moddus) 100 g AI/ha

With `CC/C=C\CC1=C(C)CCC1=O` [CJN, cis-jasmone] the “% lodging 30 DAA” value (summer barley (Pasadena); Treatment 4: CJN 300 g AI/ha) was 60.0%, the “% lodging 30 DAA” value (summer barley (Pasadena); Treatment 5: CJN 150 g AI/ha) was 70.0% and the “effect on lodging, in words” value (summer barley (Pasadena); text summary for summer barley and winter rye, cis-jasmone treatments 4 and 5 compared to treatment 1 (untreated)) was “significantly increases lodging”. For the same molecule, the “% lodging 30 DAA” value (winter rye (Rekrut); Treatment 4: CJN 300 g AI/ha) was 23.3%, the “% lodging 30 DAA” value (winter rye (Rekrut); Treatment 5: CJN 150 g AI/ha) was 30.0% and the “Plant height (cm) 21DAA” value (barley) was 90 cm. The “Clipping weight (grams) per plot, 24-June” value [1] was 14.7 a grams, the “Clipping weight (grams) per plot, 10-June” value [1] was 12.8 a grams and the “Clipping weight (grams) per plot, 17-June” value [1] was 17.69 a grams. The “Clipping weight (grams) per plot, 3-July” value [1] was 19.2 a grams, the “Clipping weight (grams) per plot, 4-June” value [1] was 21.7 a grams and the “effect on clipping weights, in words” value ([1]; Poa annua turf, compared to the untreated control) was “increased clipping weights”. For the same molecule, the “Clipping weight (grams) per plot, Cumulative Clipping total” value [1] was 213.5 a grams.
With `CCOC(=O)C1CC(=O)C(=C(O)C2CC2)C(=O)C1` (stereo not drawn) [TXP, trinexapac-ethyl, reference compound] the “% lodging 30 DAA” value (summer barley (Pasadena); [2]) was 6.7%, the “% lodging 30 DAA” value (summer barley (Pasadena); [3]) was 10.0% and the “% lodging 30 DAA” value (winter rye (Rekrut); [2]) was 0.0%. For the same molecule, the “% lodging 30 DAA” value (winter rye (Rekrut); [3]) was 6.7%, the “Plant height (cm) 21DAA” value (barley) was 90 cm and the “Clipping weight (grams) per plot, 24-June” value [1] was 10.71 grams. The “Clipping weight (grams) per plot, 10-June” value [1] was 9.27 d grams, the “Clipping weight (grams) per plot, 17-June” value [1] was 11.35 grams and the “Clipping weight (grams) per plot, 3-July” value [1] was 18.2 a grams. For the same molecule, the “Clipping weight (grams) per plot, 4-June” value [1] was 18.1 grams and the “Clipping weight (grams) per plot, Cumulative Clipping total” value [1] was 173 def grams.
